In this test the target is T1, Full-length, GST-tagged, human CaMKIIδ (Homo sapiens, UniProt Q13557).
T1 construct: Full-Length, Glutathione-S-Transferase(GST)-Tagged, Human CaMKIIδ was purchased from Carna Biosciences; purchased Carna Biosciences 02-111
T1 sequence (Q13557 1-478 isoform Q13557-12): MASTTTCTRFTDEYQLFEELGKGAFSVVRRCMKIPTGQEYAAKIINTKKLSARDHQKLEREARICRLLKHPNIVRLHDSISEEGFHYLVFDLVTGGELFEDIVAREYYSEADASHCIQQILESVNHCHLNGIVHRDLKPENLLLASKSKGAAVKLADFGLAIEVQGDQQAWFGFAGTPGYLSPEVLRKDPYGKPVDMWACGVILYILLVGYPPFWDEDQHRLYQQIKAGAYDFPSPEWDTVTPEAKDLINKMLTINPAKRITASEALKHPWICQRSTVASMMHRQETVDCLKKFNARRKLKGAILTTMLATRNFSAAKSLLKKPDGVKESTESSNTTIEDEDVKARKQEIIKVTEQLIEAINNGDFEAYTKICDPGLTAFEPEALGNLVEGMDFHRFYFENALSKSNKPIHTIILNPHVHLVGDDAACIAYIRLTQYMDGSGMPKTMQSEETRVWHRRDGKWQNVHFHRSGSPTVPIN
Description: CaMKIIδ binding assay (TR-FRET with BODIPY-labeled probe ligand). The conditions noted are these: Table 2; CaMKIIδ binding assay, activity given as class A/B/C. The gist of the method: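 TR-FRET probe-displacement binding: 0.5 nM GST-CaMKIIδ with 10 μg/mL calmodulin, 1 mM CaCl2, 0.21 nM Tb-anti-GST Ab and 300 nM BODIPY probe in HEPES pH 7.6 buffer. Eight-point 4-fold dilutions, 1 hr at room temperature. IC50 from logistic fit; 100% inhibition defined by 3 μM parent compound.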
One may read the IC50 as the concentration that inhibits the measured activity by half. Consider `C[C@@H](Cn1cnnn1)Oc1cc(-c2cnc(Nc3cn(C4CC5(C4)CN(C4COC4)C5)nc3C(F)(F)F)nc2)ccc1Cl` [Example 832, (S)-5-(3-((1-(1H-tetrazol-1-yl)propan-2-yl)oxy)-4-chlorophenyl)-N-(1-(2-(oxetan-3-yl)-2-azaspiro[3.3]heptan-6-yl)-3-(trifluoromethyl)-1H-pyrazol-4-yl)pyrimidin-2-amine], for which the IC50 was under 10 nM.
As to `C[C@H](O)Cn1cc(Nc2ncc(-c3ccc(Cl)c(O[C@@H](C)Cn4cnnn4)c3)cn2)c(OCC(F)(F)F)n1` [Example 833, (S)-1-(4-((5-(3-(((S)-1-(1H-tetrazol-1-yl)propan-2-yl)oxy)-4-chlorophenyl)pyrimidin-2-yl)amino)-3-(2,2,2-trifluoroethoxy)-1H-pyrazol-1-yl)propan-2-ol], the IC50 is under 10 nM.
Under `C[C@@H](Cn1cnnn1)Oc1cc(-c2cnc(Nc3cn([C@H]4CC[C@@H](N5CCOCC5)CC4)nc3OCC(F)F)nc2)ccc1F` [Example 834, 5-(3-(((S)-1-(1H-tetrazol-1-yl)propan-2-yl)oxy)-4-fluorophenyl)-N-(3-(2,2-difluoroethoxy)-1-(cis-4-morpholinocyclohexyl)-1H-pyrazol-4-yl)pyrimidin-2-amine] stands 10 to 100 nM; under `C[C@@H](Cn1cnnn1)Oc1cc(-c2cnc(Nc3cn([C@H]4CC[C@H](N5CCOCC5)CC4)nc3OCC(F)F)nc2)ccc1F` [Example 835, 5-(3-(((S)-1-(1H-tetrazol-1-yl)propan-2-yl)oxy)-4-fluorophenyl)-N-(3-(2,2-difluoroethoxy)-1-(trans-4-morpholinocyclohexyl)-1H-pyrazol-4-yl)pyrimidin-2-amine], under 10 nM; under `CC(C)c1nn(C2CCC(=O)CC2)cc1Nc1ncc(-c2ccc(Cl)c(O[C@@H](C)Cn3cnnn3)c2)cn1` [Example 841, (S)-4-(4-((5-(3-((1-(1H-tetrazol-1-yl)propan-2-yl)oxy)-4-chlorophenyl)pyrimidin-2-yl)amino)-3-isopropyl-1H-pyrazol-1-yl)cyclohexan-1-one], under 10 nM.
Under `CC(C)c1nn([C@H]2CC[C@@H](N3CCOCC3)CC2)cc1Nc1ncc(-c2ccc(Cl)c(O[C@@H](C)Cn3cnnn3)c2)cn1` [Example 842, 5-(3-(((S)-1-(1H-tetrazol-1-yl)propan-2-yl)oxy)-4-chlorophenyl)-N-(3-isopropyl-1-(cis-4-morpholinocyclohexyl)-1H-pyrazol-4-yl)pyrimidin-2-amine] stands under 10 nM; under `C[C@@H](Cn1cnnn1)Oc1cc(-c2cnc(Nc3cn([C@H]4CC[C@H](N5[C@@H]6CC[C@H]5COC6)CC4)nc3OCC(F)F)nc2)ccc1Cl` [Example 844, 5-(3-(((S)-1-(1H-tetrazol-1-yl)propan-2-yl)oxy)-4-chlorophenyl)-N-(1-(trans-4-((1R,5S)-3-oxa-8-azabicyclo[3.2.1]octan-8-yl)cyclohexyl)-3-(2,2-difluoroethoxy)-1H-pyrazol-4-yl)pyrimidin-2-amine], under 10 nM.
Under `C[C@@H](Cn1cnnn1)Oc1cc(-c2cnc(Nc3cn(CCNC(=O)OC(C)(C)C)nc3C(F)(F)F)nc2)ccc1Cl` [Example 845, tert-butyl (S)-(2-(4-((5-(3-((1-(1H-tetrazol-1-yl)propan-2-yl)oxy)-4-chlorophenyl)pyrimidin-2-yl)amino)-3-(trifluoromethyl)-1H-pyrazol-1-yl)ethyl)carbamate] stands 10 to 100 nM; under `CC(=O)NCCn1cc(Nc2ncc(-c3ccc(Cl)c(O[C@@H](C)Cn4cnnn4)c3)cn2)c(C(F)(F)F)n1` [Example 846, (S)-N-(2-(4-((5-(3-((1-(1H-tetrazol-1-yl)propan-2-yl)oxy)-4-chlorophenyl)pyrimidin-2-yl)amino)-3-(trifluoromethyl)-1H-pyrazol-1-yl)ethyl)acetamide], 10 to 100 nM.
For the compound `C[C@@H](Cn1cnnn1)Oc1cc(-c2cnc(Nc3cn(CC(C)(C)O)nc3C(F)(F)F)nc2)ccc1Cl` [Example 847, (S)-1-(4-((5-(3-((1-(1H-tetrazol-1-yl)propan-2-yl)oxy)-4-chlorophenyl)pyrimidin-2-yl)amino)-3-(trifluoromethyl)-1H-pyrazol-1-yl)-2-methylpropan-2-ol], the IC50 is under 10 nM.
In the case of `C[C@@H](Cn1cnnn1)Oc1cc(-c2cnc(Nc3cn(CS(C)(=O)=O)nc3C(F)(F)F)nc2)ccc1Cl` [Example 848, (S)-5-(3-((1-(1H-tetrazol-1-yl)propan-2-yl)oxy)-4-chlorophenyl)-N-(1-((methylsulfonyl)methyl)-3-(trifluoromethyl)-1H-pyrazol-4-yl)pyrimidin-2-amine] it was under 10 nM.
In the case of `C[C@@H](Cn1cnnn1)Oc1cc(-c2cnc(Nc3cn([C@H]4C[C@@H](N5CCOCC5)C4)nc3OCC(F)F)nc2)ccc1Cl` [Example 849, (S)-5-(3-((1-(1H-tetrazol-1-yl)propan-2-yl)oxy)-4-chlorophenyl)-N-(3-(2,2-difluoroethoxy)-1-(cis-3-morpholinocyclobutyl)-1H-pyrazol-4-yl)pyrimidin-2-amine] it was under 10 nM; in that of `C[C@@H](Cn1cnnn1)Oc1cc(-c2cnc(Nc3cn([C@H]4C[C@@H](NC5CCOCC5)C4)nc3OCC(F)F)nc2)ccc1Cl` [Example 850, (S)-5-(3-((1-(1H-tetrazol-1-yl)propan-2-yl)oxy)-4-chlorophenyl)-N-(3-(2,2-difluoroethoxy)-1-(cis-3-((tetrahydro-2H-pyran-4-yl)amino)cyclobutyl)-1H-pyrazol-4-yl)pyrimidin-2-amine], under 10 nM.
In the case of `C[C@@H](Cn1cnnn1)Oc1cc(-c2cnc(Nc3cn(C4CCC(CC(=O)O)CC4)nc3C(F)(F)F)nc2)ccc1Cl` (stereo partly drawn) [Example 851, (S)-2-(4-(4-((5-(3-((1-(1H-tetrazol-1-yl)propan-2-yl)oxy)-4-chlorophenyl)pyrimidin-2-yl)amino)-3-(trifluoromethyl)-1H-pyrazol-1-yl)cyclohexyl)acetic acid] it was at least 100 nM; in that of `C[C@@H](Cn1cnnn1)Oc1cc(-c2cnc(Nc3cn(C4CCC(CC(N)=O)CC4)nc3C(F)(F)F)nc2)ccc1Cl` (stereo partly drawn) [Example 852, (S)-2-(4-(4-((5-(3-((1-(1H-tetrazol-1-yl)propan-2-yl)oxy)-4-chlorophenyl)pyrimidin-2-yl)amino)-3-(trifluoromethyl)-1H-pyrazol-1-yl)cyclohexyl)acetamide], at least 100 nM; in that of `C[C@@H](Cn1cnnn1)Oc1cc(-c2cnc(Nc3cn(CC4(O)CCC4)nc3OCC(F)(F)F)nc2)ccc1Cl` [Example 853, (S)-1-((4-((5-(3-((1-(1H-tetrazol-1-yl)propan-2-yl)oxy)-4-chlorophenyl)pyrimidin-2-yl)amino)-3-(2,2,2-trifluoroethoxy)-1H-pyrazol-1-yl)methyl)cyclobutan-1-ol], under 10 nM.
For the compound `C[C@@H](Cn1cnnn1)Oc1cc(-c2cnc(Nc3cn(C4CC5(C4)CN(C4COC4)C5)nc3OCC(F)(F)F)nc2)ccc1Cl` [Example 854, (S)-5-(3-((1-(1H-tetrazol-1-yl)propan-2-yl)oxy)-4-chlorophenyl)-N-(1-(2-(oxetan-3-yl)-2-azaspiro[3.3]heptan-6-yl)-3-(2,2,2-trifluoroethoxy)-1H-pyrazol-4-yl)pyrimidin-2-amine], the IC50 was under 10 nM.
Under `C[C@@H](Cn1cnnn1)Oc1cc(-c2cnc(Nc3cn(CC4(O)CCC4)nc3C(F)(F)F)nc2)ccc1Cl` [Example 855, (S)-1-((4-((5-(3-((1-(1H-tetrazol-1-yl)propan-2-yl)oxy)-4-chlorophenyl)pyrimidin-2-yl)amino)-3-(trifluoromethyl)-1H-pyrazol-1-yl)methyl)cyclobutan-1-ol] stands under 10 nM; under `C[C@@H](Cn1cnnn1)Oc1cc(-c2cnc(Nc3cn([C@H]4CC[C@@H](N5CC(O)(C(F)(F)F)C5)CC4)nc3C(F)(F)F)nc2)ccc1Cl` [Example 856, 1-(cis-4-(4-((5-(3-(((S)-1-(1H-tetrazol-1-yl)propan-2-yl)oxy)-4-chlorophenyl)pyrimidin-2-yl)amino)-3-(trifluoromethyl)-1H-pyrazol-1-yl)cyclohexyl)-3-(trifluoromethyl)azetidin-3-ol], 10 to 100 nM; under `C[C@@H](Cn1cnnn1)Oc1cc(-c2cnc(Nc3cn([C@H]4CC[C@H](N5CC(O)(C(F)(F)F)C5)CC4)nc3C(F)(F)F)nc2)ccc1Cl` [Example 857, 1-(trans-4-(4-((5-(3-(((S)-1-(1H-tetrazol-1-yl)propan-2-yl)oxy)-4-chlorophenyl)pyrimidin-2-yl)amino)-3-(trifluoromethyl)-1H-pyrazol-1-yl)cyclohexyl)-3-(trifluoromethyl)azetidin-3-ol], under 10 nM.
Compound `C[C@@H](Cn1cnnn1)Oc1cc(-c2cnc(Nc3cn(CC4(O)CCC4)nc3C(F)(F)F)nc2)ccc1F` [Example 858, (S)-1-((4-((5-(3-((1-(1H-tetrazol-1-yl)propan-2-yl)oxy)-4-fluorophenyl)pyrimidin-2-yl)amino)-3-(trifluoromethyl)-1H-pyrazol-1-yl)methyl)cyclobutan-1-ol] had an IC50 of 10 to 100 nM.
Under `C[C@@H](Cn1cnnn1)Oc1cc(-c2cnc(Nc3cn(C4CC5(C4)CN(CC(C)(C)O)C5)nc3C(F)(F)F)nc2)ccc1Cl` [Example 859, (S)-1-(6-(4-((5-(3-((1-(1H-tetrazol-1-yl)propan-2-yl)oxy)-4-chlorophenyl)pyrimidin-2-yl)amino)-3-(trifluoromethyl)-1H-pyrazol-1-yl)-2-azaspiro[3.3]heptan-2-yl)-2-methylpropan-2-ol] stands under 10 nM; under `C[C@@H](Cn1cnnn1)Oc1cc(-c2cnc(Nc3cn(CC(C)(C)NC(=O)OC(C)(C)C)nc3C(F)(F)F)nc2)ccc1Cl` [Example 860, tert-butyl (S)-(1-(4-((5-(3-((1-(1H-tetrazol-1-yl)propan-2-yl)oxy)-4-chlorophenyl)pyrimidin-2-yl)amino)-3-(trifluoromethyl)-1H-pyrazol-1-yl)-2-methylpropan-2-yl)carbamate], at least 100 nM.
